Data from the supplement of paper PMC10307832.

compound: C1CSC2=C(C(=O)N1)SC3=C2C=C(C=C3)O [kb NB 142-70] + CC1(C)CCC(c2ccc(Cl)cc2)=C(CN2CCN(c3ccc(C(=O)NS(=O)(=O)c4ccc(N[C@H](CCN5CCOCC5)CSc5ccccc5)c(S(=O)(=O)C(F)(F)F)c4)cc3)CC2)C1 [Navitoclax] (partner 0.5 µM); assay: relative viability (nuclei count vs DMSO), 5 days (fraction); higher = more cells survive; conditions: first compound 0.1 µM
How it was run: (§1)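 One day after seeding in 1536-well plates, lung cancer cell lines were dosed by pin tool. Dosing was either single-drug or a fixed anchor-drug dose plus five library-drug doses (not always all listed) in √10 steps. After 5 days, nuclei were stained in one fix-and-stain step and counted on 4× images, and relative viability is the nuclei count of treated wells over that of vehicle wells, given as the median of duplicate plates.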

Cell Line	relative viability
NCI-H727	0.522
NCI-H1650	1.25
EBC-1	0.415
NCI-H1703	1.04
NCI-H1993	0.941
SW 1573	0.954
NCI-H838	1.19
NCI-H520	1.07
NCI-H2126	0.853
EMC-BAC-2	1.16
NCI-H2085	1.18
Calu-6	0.859
HCC-366	1.03
NCI-H1666	1.08
NCI-H596	1
LK-2	0.879
NCI-H2087	1.06

Cell Line	relative viability
SK-MES-1	1.21
H3255	0.498
COR-L23	0.941
COR-L 105	0.746
IA-LM	0.807
LOU-NH91	0.753
ChaGo-K-1	1.17
NCI-H2170	0.564
NCI-H2405	0.966
HOP-62	0.994
HCC-44	1
A549	1.27
LU99A	0.845
BEN	0.0749
HARA	1.15
NCI-H1299	1.07

same assay, conditions: first compound 1 µM

Cell Line	relative viability
NCI-H727	0.397
NCI-H1650	1.24
EBC-1	0.322
NCI-H1703	1.05
NCI-H1993	0.82
SW 1573	0.878
NCI-H838	1.14
NCI-H520	1.19
NCI-H2126	0.843
EMC-BAC-2	1.28
NCI-H2085	1.05
Calu-6	0.891
HCC-366	1.13
NCI-H1666	1.04
NCI-H596	0.982
LK-2	0.723
NCI-H2087	1.11

Cell Line	relative viability
SK-MES-1	1.27
H3255	0.538
COR-L23	1.08
COR-L 105	0.828
IA-LM	0.843
LOU-NH91	0.632
ChaGo-K-1	1.11
NCI-H2170	0.674
NCI-H2405	0.863
HOP-62	1.11
HCC-44	1.16
A549	1.08
LU99A	0.816
BEN	0.0596
HARA	1.11
NCI-H1299	1.13

same assay, conditions: first compound 3.162 µM

Cell Line	relative viability
NCI-H727	0.263
NCI-H1650	0.89
EBC-1	0.22
NCI-H1703	0.93
NCI-H1993	0.799
SW 1573	0.561
NCI-H838	1
NCI-H520	0.482
NCI-H2126	0.849
EMC-BAC-2	1.27
NCI-H2085	0.738
Calu-6	0.376
HCC-366	0.823
NCI-H1666	0.858
NCI-H596	0.866
LK-2	0.464
NCI-H2087	0.771

Cell Line	relative viability
SK-MES-1	0.658
H3255	0.55
COR-L23	0.324
COR-L 105	0.727
IA-LM	0.651
LOU-NH91	0.438
ChaGo-K-1	0.885
NCI-H2170	0.432
NCI-H2405	0.679
HOP-62	0.968
HCC-44	1.09
A549	0.142
LU99A	0.598
BEN	0.0617
HARA	1.08
NCI-H1299	1.1

compound: NCC(=O)Nc1ccc(-n2nc(C(F)(F)F)cc2-c2ccc3c(ccc4ccccc43)c2)cc1 + CC1(C)CCC(c2ccc(Cl)cc2)=C(CN2CCN(c3ccc(C(=O)NS(=O)(=O)c4ccc(N[C@H](CCN5CCOCC5)CSc5ccccc5)c(S(=O)(=O)C(F)(F)F)c4)cc3)CC2)C1 [Navitoclax] (partner 0.5 µM); assay: as above; conditions: first compound 0.02 µM
How it was run: as §1

Cell Line	relative viability
NCI-H727	0.464
NCI-H1650	1.25
EBC-1	0.451
NCI-H1703	1.07
NCI-H1993	0.945
SW 1573	1.03
NCI-H838	1.19
NCI-H520	0.979
NCI-H2126	0.866
EMC-BAC-2	1.14
NCI-H2085	1.06
Calu-6	0.885
HCC-366	1.15
NCI-H1666	1.14
NCI-H596	0.593
LK-2	1.02
NCI-H2087	0.849

Cell Line	relative viability
SK-MES-1	1.31
H3255	0.481
COR-L23	1.1
COR-L 105	0.817
IA-LM	0.814
LOU-NH91	0.74
ChaGo-K-1	0.931
NCI-H2170	0.56
NCI-H2405	0.848
HOP-62	1.06
HCC-44	0.866
A549	1.24
LU99A	0.756
BEN	0.0632
HARA	1.24
NCI-H1299	1.02

same assay, conditions: first compound 0.06325 µM

Cell Line	relative viability
NCI-H727	0.568
NCI-H1650	1.5
EBC-1	0.427
NCI-H1703	1.06
NCI-H1993	1.06
SW 1573	0.969
NCI-H838	1.12
NCI-H520	1.17
NCI-H2126	0.865
EMC-BAC-2	1.19
NCI-H2085	1.16
Calu-6	0.812
HCC-366	1.04
NCI-H1666	0.788
NCI-H596	0.968
LK-2	0.862
NCI-H2087	1.11
SK-MES-1	1.2
H3255	0.578
COR-L23	0.935
COR-L 105	0.947
IA-LM	0.808
LOU-NH91	0.755
